Test results reported in ChEMBL document CHEMBL2021763, “Solution NMR analysis of the binding mechanism of DIVS6 model peptides of voltage-gated sodium channels and the lipid soluble alkaloid veratridine” (Bioorg Med Chem, 2012).

Tests used:
[1] = Binding affinity to transmembrane model peptide-1 of domain 4 segment 6 of rat skeletal muscle Nav1.4 by Marquardt and Levenberg algorithm analysis
[2] = Binding affinity to transmembrane model peptide-2 of domain 4 segment 6 of rat skeletal muscle Nav1.4 by Marquardt and Levenberg algorithm analysis
[3] = Toxicity in ip dosed mouse; format: organism-based; conditions: in vivo

Structure (SMILES)	Kd [1]	Kd [2]	LD50 [3]
COc1ccc(C(=O)O[C@H]2CC[C@@]3(C)[C@@H]4CC[C@H]5[C@]6(O)C[C@H](O)[C@@]7(O)[C@@H](CN8C[C@@H](C)CC[C@H]8[C@@]7(C)O)[C@]6(O)C[C@@]53O[C@]24O)cc1OC [VERATRIDINE]	1400 µM	490 µM	9 mg/kg
C[C@H]1CC[C@@H]2N(C1)C[C@@H]1[C@](O)([C@@H](O)C[C@@]3(O)[C@@H]4CC[C@@H]5[C@]6(O)O[C@@]4(C[C@@]13O)[C@@]5(C)CC[C@@H]6O)[C@]2(C)O [VERACEVINE]	890 µM	–	> 100 mg/kg
